Data from patent publication US12264156B2, “Compounds and pharmaceutical compositions thereof for the treatment of diseases” (GALAPAGOS NV, priority 2018, dated 2025).

What was measured:
[1] = target: T1, SIK1 (Homo sapiens, UniProt P57059); assay: ADP-Glo kinase assay, SIK1; format: biochemical; conditions: ADP-Glo SIK kinase assay
T1 construct: purchased Carna Biosciences 02-131
How it was run: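 Wells with 1% DMSO or 10 μM staurosporine (final) define the control window. The kinase reaction with substrate and ATP runs 120 min at RT, followed by ADP-Glo detection: ATP depletion (40 min) and ADP-derived luminescence (30 min).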

[2] = target: T2, SIK2 (Homo sapiens, UniProt Q9H0K1); assay: ADP-Glo kinase assay, SIK2; format: biochemical; conditions: ADP-Glo SIK kinase assay
T2 construct: purchased ThermoFisher Scientific PV4792
T2 sequence (Q9H0K1 whole entry): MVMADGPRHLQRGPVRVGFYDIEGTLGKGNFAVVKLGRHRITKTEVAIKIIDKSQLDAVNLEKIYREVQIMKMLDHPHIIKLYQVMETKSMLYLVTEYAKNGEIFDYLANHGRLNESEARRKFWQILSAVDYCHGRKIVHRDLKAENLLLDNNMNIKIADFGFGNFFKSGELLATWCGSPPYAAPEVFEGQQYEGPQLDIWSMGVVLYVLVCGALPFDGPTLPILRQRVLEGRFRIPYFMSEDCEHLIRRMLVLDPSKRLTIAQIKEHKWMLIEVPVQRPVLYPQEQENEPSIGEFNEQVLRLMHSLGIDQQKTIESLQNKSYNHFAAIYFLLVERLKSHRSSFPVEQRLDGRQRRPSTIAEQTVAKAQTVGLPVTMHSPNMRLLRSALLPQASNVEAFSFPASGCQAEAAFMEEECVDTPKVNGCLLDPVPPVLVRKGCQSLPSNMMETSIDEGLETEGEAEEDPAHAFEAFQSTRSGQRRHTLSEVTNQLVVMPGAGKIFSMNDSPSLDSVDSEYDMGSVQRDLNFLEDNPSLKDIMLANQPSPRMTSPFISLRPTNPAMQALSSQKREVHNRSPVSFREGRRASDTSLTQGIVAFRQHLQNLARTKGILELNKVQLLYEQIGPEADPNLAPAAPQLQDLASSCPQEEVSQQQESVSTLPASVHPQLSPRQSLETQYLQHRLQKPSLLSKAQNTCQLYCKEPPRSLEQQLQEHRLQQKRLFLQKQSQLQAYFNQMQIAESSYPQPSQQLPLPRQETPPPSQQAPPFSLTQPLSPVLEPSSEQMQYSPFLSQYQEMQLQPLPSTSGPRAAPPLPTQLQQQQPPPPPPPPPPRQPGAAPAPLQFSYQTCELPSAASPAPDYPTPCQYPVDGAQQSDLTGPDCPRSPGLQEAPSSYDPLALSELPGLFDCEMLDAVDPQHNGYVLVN
How it was run: (§1)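 ADP-Glo, RT throughout. Enz/substrate + ATP, 120 min; ADP-Glo reagent 40 min (ATP depletion); detection reagent 30 min; luminescence read. Neg ctrl 1% DMSO, pos ctrl 10 μM staurosporine, final concs.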

[3] = target: T3, SIK3 (Homo sapiens, UniProt Q9Y2K2); assay: ADP-Glo kinase assay, SIK3; format: biochemical; conditions: ADP-Glo SIK kinase assay
T3 construct: purchased SignalChem S12-11G-100
T3 sequence (Q9Y2K2 whole entry): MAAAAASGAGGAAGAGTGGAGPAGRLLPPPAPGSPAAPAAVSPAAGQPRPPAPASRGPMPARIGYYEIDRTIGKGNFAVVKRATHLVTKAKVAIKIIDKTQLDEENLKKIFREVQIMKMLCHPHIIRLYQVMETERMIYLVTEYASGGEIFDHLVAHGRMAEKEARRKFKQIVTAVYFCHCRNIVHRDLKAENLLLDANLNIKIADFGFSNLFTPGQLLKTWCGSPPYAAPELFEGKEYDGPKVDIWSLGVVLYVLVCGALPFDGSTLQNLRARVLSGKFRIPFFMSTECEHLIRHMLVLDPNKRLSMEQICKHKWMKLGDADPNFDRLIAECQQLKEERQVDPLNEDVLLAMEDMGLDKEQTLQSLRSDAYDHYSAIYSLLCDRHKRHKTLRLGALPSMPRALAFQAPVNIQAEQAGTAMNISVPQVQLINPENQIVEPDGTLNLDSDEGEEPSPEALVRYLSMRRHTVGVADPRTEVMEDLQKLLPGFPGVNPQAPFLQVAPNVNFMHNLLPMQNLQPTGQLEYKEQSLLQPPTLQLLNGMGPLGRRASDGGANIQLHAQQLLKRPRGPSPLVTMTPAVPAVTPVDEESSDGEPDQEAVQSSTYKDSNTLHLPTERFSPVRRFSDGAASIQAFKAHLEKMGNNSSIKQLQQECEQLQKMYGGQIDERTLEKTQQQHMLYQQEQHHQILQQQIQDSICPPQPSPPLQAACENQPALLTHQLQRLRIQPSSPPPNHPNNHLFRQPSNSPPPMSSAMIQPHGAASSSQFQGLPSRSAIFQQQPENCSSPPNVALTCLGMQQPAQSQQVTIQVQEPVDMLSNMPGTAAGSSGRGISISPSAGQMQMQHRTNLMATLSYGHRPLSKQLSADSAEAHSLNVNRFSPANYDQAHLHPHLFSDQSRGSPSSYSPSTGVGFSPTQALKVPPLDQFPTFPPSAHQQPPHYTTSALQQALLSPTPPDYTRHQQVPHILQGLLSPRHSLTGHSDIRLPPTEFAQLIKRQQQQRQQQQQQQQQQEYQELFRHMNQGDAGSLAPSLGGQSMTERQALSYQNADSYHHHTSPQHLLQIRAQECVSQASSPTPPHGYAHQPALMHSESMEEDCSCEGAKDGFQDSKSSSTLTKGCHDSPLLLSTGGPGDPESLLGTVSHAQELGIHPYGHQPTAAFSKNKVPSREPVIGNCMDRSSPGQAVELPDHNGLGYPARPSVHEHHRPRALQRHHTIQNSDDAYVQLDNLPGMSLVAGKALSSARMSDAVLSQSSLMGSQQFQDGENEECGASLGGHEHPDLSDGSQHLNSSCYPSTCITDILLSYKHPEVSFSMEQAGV
How it was run: as §1

[4] = system: LPS-induced TNFα in monocyte-derived macrophages (MdM); assay: MdM assay: LPS-triggered TNFα (ELISA); format: cell-based, human; conditions: Homo sapiens, Macrophage, 20 h, monocyte-derived macrophages, LPS 200 ng/mL, supernatant after 20 h; read-out: TNFα EC50
Protocol: This assay evaluates illustrative compounds of the invention for their inhibition of LPS-induced TNFα and LPS triggered IL-10 secretion in monocyte-derived macrophages.
PBMCs are isolated from human blood samples (buffycoats). The buffy coat is aseptically transferred into a 50 mL Falcon tube, and diluted 1/2 in PBS. Falcon tubes are filled with 20 mL Lymphoprep™, on top of which 25 mL of the buffy coat is carefully added, tubes are centrifuged for 35 min at 400 g in temperature controlled centrifuge, without brake, at 25° C. PBMCs are aspirated from the white interface layer between sample and Lymphoprep™. PBMCs are washed five times in PBS.
PBMCs are centrifuged at 300×g for 10 min and resuspended at a density of 1.0*10^7 cells/80 μL Miltenyi buffer (PBS, pH 7.4, 1% FBS, 2 mM EDTA).
Starting from this point of the protocol all steps are performed on ice. 20 μL of CD14+ micro-beads are added per 1.0*10^7 cells, the tube is mixed and incubated for 15 min in the fridge at 4° C. Cell suspension volume is adjusted to total volume of 100 mL using Miltenyi buffer, mixed gently and subsequently centrifuged for 10 min at 300×g. Supernantant is discarded and cell pellet is resuspended in 12 mL of Miltenyi buffer.
Four LS columns are placed in the MACS Separator (magnet) from Miltenyi Biotec, and are prewet by rinsing with 3 mL of MACS buffer per column. Three mL of cell suspension is added onto the column (max 1*10^8 of labelled cells/column), and columns are subsequently washed 3 times with 3 mL of Miltenyi buffer.
The columns are removed from the magnets, and 5 mL of Miltenyi buffer are added to the column to flush out the CD14+ fraction by pushing the plunger into the column. The flushed fractions are collected in a fresh 50 mL Falcon and volume is adjusted to 30 mL using Miltenyi buffer, cells are centrifuged for 10 min at 300×g. The obtained cell pellet is resuspended in 10 mL RPMI w/o FBS, and cell density is determined using a hematologic analyser (Sysmex XS-500i).
On day 10, MdMs are triggered and compound is added.
A compound dilution plate is made in 100% DMSO by 3-fold dilution of 10 mM stock solution. An intermediate dilution plate (10× final concentration) is made by diluting the compound dilution plate 50-fold in RPMI medium.
Medium is carefully removed from cell plates using multichannel pipette, and replaced by 80 μL fresh medium. 10 μL of the 10× final concentration compound is added to the cells and incubated for 1 hour at 37° C. before addition of trigger. No trigger conditions/trigger conditions are spiked with equal final DMSO concentrations of 0.2% DMSO. 10 μL of 10×LPS (final conc. 200 ng/mL) solution are added to all wells except for the ‘no trigger wells’ where 10 μL medium is added. Supernatant is collected after 2 h (IL-10 determination) and after 20 h (TNFα determination) of LPS triggering.
The plate is then washed once with PBST (PBS+0.05% Tween20) and once with PBS followed by the addition of 100 μL of blocking buffer (1% Bovine Serum Albumin (BSA)−5% Sucrose) and plates are sealed and incubated for at least 4 h at RT. After washing the plate once with PBST and once with PBS, 40 μL of standard or sample are added (TNFα standard curve is prepared using a 1/2 serial dilution starting from […]; dilutions are made in dilution buffer (PBS+1% BSA)). Plates are washed twice with PBST, and once with PBS, after which 35 μL of the detection antibody is added (final concentration 0.25 μg/mL diluted in dilution buffer) and plates are incubated for at least 2 h at RT. Plates are washed twice with PBST, and once with PBS, where after 35 μL of Strep-HRP conjugate (0.5 μg/mL final concentration diluted in dilution buffer) is added. Plates are incubated in the dark, at RT for at least 45 min but no longer than 1 hour. Plates are washed twice with PBST, and once with PBS.

T1 sequence (P57059 whole entry): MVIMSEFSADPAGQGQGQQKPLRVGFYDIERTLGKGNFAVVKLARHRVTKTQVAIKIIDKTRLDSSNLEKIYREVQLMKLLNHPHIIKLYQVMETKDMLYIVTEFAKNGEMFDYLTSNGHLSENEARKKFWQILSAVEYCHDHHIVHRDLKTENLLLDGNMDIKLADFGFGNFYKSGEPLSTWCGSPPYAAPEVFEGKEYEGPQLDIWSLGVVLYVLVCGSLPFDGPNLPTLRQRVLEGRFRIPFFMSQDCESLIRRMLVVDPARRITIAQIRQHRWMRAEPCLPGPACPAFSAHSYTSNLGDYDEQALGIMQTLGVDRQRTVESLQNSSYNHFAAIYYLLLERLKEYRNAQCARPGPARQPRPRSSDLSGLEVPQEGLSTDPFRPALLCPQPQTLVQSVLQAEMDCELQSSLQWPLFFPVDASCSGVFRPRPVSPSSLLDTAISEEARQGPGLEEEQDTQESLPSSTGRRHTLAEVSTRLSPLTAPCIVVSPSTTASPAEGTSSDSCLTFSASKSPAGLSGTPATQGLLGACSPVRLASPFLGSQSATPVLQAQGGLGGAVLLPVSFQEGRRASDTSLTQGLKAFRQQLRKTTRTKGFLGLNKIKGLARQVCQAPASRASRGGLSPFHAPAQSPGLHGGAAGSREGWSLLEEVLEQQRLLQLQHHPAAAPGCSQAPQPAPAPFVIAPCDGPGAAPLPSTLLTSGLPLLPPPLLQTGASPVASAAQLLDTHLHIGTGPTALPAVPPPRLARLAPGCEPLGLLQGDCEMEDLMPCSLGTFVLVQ

| IC50 [1] [nM] | IC50 [2] [nM] | IC50 [3] [nM] | EC50 [4] [nM] | Compound |
| --- | --- | --- | --- | --- |
| 10 to 100 | 0.01 to 10 | 0.01 to 10 | 100 to 1000 | COc1cc(-c2cnc3cc(OCCN4CC[C@H](F)C4)ccn23)cc(OC(F)F)c1C(=O)NC1CC1 [Cpd 160, N-cyclopropyl-2-(difluoromethoxy)-4-[7-[2-[(3S)-3-fluoropyrrolidin-1-yl]ethoxy]imidazo[1,2-a]pyridin-3-yl]-6-methoxy-benzamide] |
| 10 to 100 | 0.01 to 10 | 0.01 to 10 | 100 to 1000 | COc1cc(-c2cnc3cc(OC[C@@H]4CC(F)(F)CN4C)ccn23)cc(OC(F)F)c1C(=O)NC1CC1 [Cpd 189, N-cyclopropyl-2-(difluoromethoxy)-4-[7-[[(2S)-4,4-difluoro-1-methyl-pyrrolidin-2-yl]methoxy]imidazo[1,2-a]pyridin-3-yl]-6-methoxy-benzamide] |
| 10 to 100 | 0.01 to 10 | 0.01 to 10 | 100 to 1000 | COc1cc(-c2cnc3cc(OCCN4CCOCC4)ccn23)cc2c1C(=O)NCC2 [Cpd 217, 8-methoxy-6-[7-(2-morpholinoethoxy)imidazo [1,2-a]pyridin-3-yl]-3,4-dihydro-2H-isoquinolin-1-one] |
| 100 to 500 | 0.01 to 10 | 0.01 to 10 | 100 to 1000 | O=C1c2c(cc(-c3cnc4cc(OCCN5CCOCC5)ccn34)cc2OC(F)F)CCN1C1CC1 [Cpd 224, 2-cyclopropyl-8-(difluoromethoxy)-6-[7-(2-morpholinoethoxy)imidazo [1,2-a]pyridin-3-yl]-3,4-dihydroisoquinolin-1-one] |
| 0.01 to 10 | 0.01 to 10 | 0.01 to 10 | – | COc1cc(-c2cnc3cc(OC[C@H]4CCCN(CCC#N)C4)ccn23)cc(OC(F)F)c1C(=O)NC1CC1 [compound 351, 4-[7-[[(3S)-1-(2-cyanoethyl)-3-piperidyl]methoxy]imidazo [1,2-a]pyridin-3-yl]-N-cyclopropyl-2-(difluoromethoxy)-6-methoxy-benzamide] |
| 0.01 to 10 | 0.01 to 10 | 0.01 to 10 | – | COc1cc(-c2cnc3cc(OCCCN4[C@H](C)CCC[C@@H]4C)ccn23)cc(OC(F)F)c1C(=O)NC1CC1 [compound 352, N-cyclopropyl-2-(difluoromethoxy)-4-[7-[3-[(2R,6S)-2,6-dimethyl-1-piperidyl]propoxy]imidazo [1,2-a]pyridin-3-yl]-6-methoxy-benzamide] |
| 100 to 500 | 10 to 100 | 100 to 500 | – | COc1cc(-c2cnc3cc(OCCCN4CCCCC4)ccn23)cc(OC(F)F)c1C(=O)N1CC(O)(CC#N)C1 [compound 355, 2-[1-[2-(difluoromethoxy)-6-methoxy-4-[7-[3-(1-piperidyl)propoxy]imidazo[1,2-a]pyridin-3-yl]benzoyl]-3-hydroxy-azetidin-3-yl]acetonitrile] |
| 10 to 100 | 0.01 to 10 | 0.01 to 10 | – | COc1cc(-c2cnc3cc(OCC(F)(F)CN)ccn23)cc(OC(F)F)c1C(=O)NC1CC1 [compound 364, 4-[7-(3-amino-2,2-difluoro-propoxy)imidazo[1,2-a]pyridin-3-yl]-N-cyclopropyl-2-(difluoromethoxy)-6-methoxy-benzamide] |
| 0.01 to 10 | 0.01 to 10 | 0.01 to 10 | – | COc1cc(-c2cnc3cc(OCCNc4ccccn4)ccn23)cc(OC(F)F)c1C(=O)NC1CC1 [compound 367, N-cyclopropyl-2-(difluoromethoxy)-6-methoxy-4-[7-[2-(2-pyridylamino)ethoxy]imidazo[1,2-a]pyridin-3-yl]benzamide] |
| 0.01 to 10 | 0.01 to 10 | 0.01 to 10 | – | COc1cc(-c2cnc3cc(OCCNc4ncccn4)ccn23)cc(OC(F)F)c1C(=O)NC1CC1 [compound 368, N-cyclopropyl-2-(difluoromethoxy)-6-methoxy-4-[7-[2-(pyrimidin-2-ylamino)ethoxy]imidazo [1,2-a]pyridin-3-yl]benzamide] |
| 0.01 to 10 | 0.01 to 10 | 0.01 to 10 | – | COc1cc(-c2cnc3cc(OCCNc4ccncn4)ccn23)cc(OC(F)F)c1C(=O)NC1CC1 [compound 369, N-cyclopropyl-2-(difluoromethoxy)-6-methoxy-4-[7-[2-(pyrimidin-4-ylamino)ethoxy]imidazo [1,2-a]pyridin-3-yl]benzamide] |
| 10 to 100 | 0.01 to 10 | 0.01 to 10 | – | COc1cc(-c2cnc3cc(OCC(O)CN4CC[C@@H](O)C4)ccn23)cc(OC(F)F)c1C(=O)NC1CC1 (stereo partly drawn) [compound 376, N-cyclopropyl-2-(difluoromethoxy)-4-[7-[2-hydroxy-3-[(3R)-3-hydroxypyrrolidin-1-yl]propoxy]imidazo[1,2-a]pyridin-3-yl]-6-methoxy-benzamide] |
| 10 to 100 | 0.01 to 10 | 0.01 to 10 | – | COC(=O)[C@@H]1CN(CCOc2ccn3c(-c4cc(OC)c(C(=O)NC5CC5)c(OC(F)F)c4)cnc3c2)CCO1 [compound 389, methyl (2S)-4-[2-[3-[4-(cyclopropylcarbamoyl)-3-(difluoromethoxy)-5-methoxy-phenyl]imidazo[1,2-a]pyridin-7-yl]oxyethyl]morpholine-2-carboxylate] |
| 10 to 100 | 0.01 to 10 | 0.01 to 10 | – | COc1cc(-c2cnc3cc(OCCCN4CC(C(=O)OC(C)(C)C)C4)ccn23)cc(OC(F)F)c1C(=O)NC1CC1 [compound 391, tert-butyl 1-[3-[3-[4-(cyclopropylcarbamoyl)-3-(difluoromethoxy)-5-methoxy-phenyl]imidazo[1,2-a]pyridin-7-yl]oxypropyl]azetidine-3-carboxylate] |
| 10 to 100 | 0.01 to 10 | 0.01 to 10 | – | CCOC(=O)C1CCCN(CCOc2ccn3c(-c4cc(OC)c(C(=O)NC5CC5)c(OC(F)F)c4)cnc3c2)C1 (stereo not shown) [compound 392, ethyl 1-[2-[3-[4-(cyclopropylcarbamoyl)-3-(difluoromethoxy)-5-methoxy-phenyl]imidazo[1,2-a]pyridin-7-yl]oxyethyl]piperidine-3-carboxylate] |
| 10 to 100 | 0.01 to 10 | 0.01 to 10 | – | COC(=O)C1CN(CCOc2ccn3c(-c4cc(OC)c(C(=O)NC5CC5)c(OC(F)F)c4)cnc3c2)C1 [compound 393, methyl 1-[2-[3-[4-(cyclopropylcarbamoyl)-3-(difluoromethoxy)-5-methoxy-phenyl]imidazo[1,2-a]pyridin-7-yl]oxyethyl]azetidine-3-carboxylate] |
| 10 to 100 | 0.01 to 10 | 0.01 to 10 | – | CCOC(=O)C1CCCN(CCCOc2ccn3c(-c4cc(OC)c(C(=O)NC5CC5)c(OC(F)F)c4)cnc3c2)C1 (stereo not shown) [compound 395, ethyl 1-[3-[3-[4-(cyclopropylcarbamoyl)-3-(difluoromethoxy)-5-methoxy-phenyl]imidazo[1,2-a]pyridin-7-yl]oxypropyl]piperidine-3-carboxylate] |
